target: T1, PPARγ-RXRα heterodimer (Homo sapiens, UniProt P37231); assay: PPARγ-RXRα heterodimer ligand activity (luciferase reporter assay in PPARγ:RXRα:4ERPP/CHO-K1 cells); assay type: cell-based; conditions: incubated one day with test compound, luciferase induction rate, compound concentration showing 50% of the maximum value of induction rate
T1 construct: expressed in transfected cells; host or cells: CHO-K1 (PPARγ:RXRα:4ERPP/CHO-K1)
T1 sequence (P37231 1-505): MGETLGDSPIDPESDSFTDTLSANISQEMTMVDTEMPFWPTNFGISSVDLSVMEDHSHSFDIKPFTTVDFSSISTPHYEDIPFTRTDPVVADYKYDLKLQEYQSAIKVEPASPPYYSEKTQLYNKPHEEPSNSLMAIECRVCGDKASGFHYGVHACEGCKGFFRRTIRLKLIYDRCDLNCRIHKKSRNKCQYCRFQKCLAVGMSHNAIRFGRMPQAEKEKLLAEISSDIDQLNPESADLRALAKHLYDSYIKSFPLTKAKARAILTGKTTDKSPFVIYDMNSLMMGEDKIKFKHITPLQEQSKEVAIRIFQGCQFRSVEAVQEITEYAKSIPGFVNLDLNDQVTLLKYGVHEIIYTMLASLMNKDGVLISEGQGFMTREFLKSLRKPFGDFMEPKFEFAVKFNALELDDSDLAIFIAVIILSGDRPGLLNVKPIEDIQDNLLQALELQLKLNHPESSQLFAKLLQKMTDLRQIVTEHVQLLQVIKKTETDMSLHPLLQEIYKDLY
T1 sequence (P19793 1-462 partner): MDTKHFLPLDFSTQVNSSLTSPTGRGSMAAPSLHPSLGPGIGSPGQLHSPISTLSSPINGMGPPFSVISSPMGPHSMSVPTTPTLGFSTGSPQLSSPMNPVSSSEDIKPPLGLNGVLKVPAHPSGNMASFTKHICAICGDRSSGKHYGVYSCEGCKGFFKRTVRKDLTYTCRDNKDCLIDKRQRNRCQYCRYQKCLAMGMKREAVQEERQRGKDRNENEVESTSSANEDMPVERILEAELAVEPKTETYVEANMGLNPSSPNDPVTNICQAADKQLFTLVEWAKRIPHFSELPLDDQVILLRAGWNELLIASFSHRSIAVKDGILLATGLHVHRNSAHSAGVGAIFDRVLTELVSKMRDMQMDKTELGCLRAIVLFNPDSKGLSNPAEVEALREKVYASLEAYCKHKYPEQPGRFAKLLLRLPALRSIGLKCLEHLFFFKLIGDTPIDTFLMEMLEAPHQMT
Method: The PPARγ:RXRα:4ERPP/CHO-K1 cells described in WO03/099793 were cultured in a Ham F12 medium [manufactured by Life Technologies, Inc., US] containing 10% calf fetal serum [manufactured by Life Technologies, Inc., US], sown in a 96-well white plate [manufactured by Corning Coster Corporation, US] at 1×10^4 cells/well, and incubated overnight in a carbon dioxide gas incubator at 37° C.
Then, the medium was removed from the 96 well white plate, 45 μl of Ham F12 medium containing 0.1% fatty acid-free bovine serum albumin (BSA) and a test compound (5 μl) were added, and the cells were incubated for one day in a carbon dioxide gas incubator at 37° C. The medium was removed, 20 μl of PicaGene 7.5 (manufactured by Wako Pure Chemical Industries, Ltd.) 2-fold diluted with HBSS (HANKS' BALANCED SALT SOLUTION) [manufactured by BIO WHITTAKER, US] was added. After stirring, the luciferase activity was determined using the 1420 ARVO Multilabel Counter [manufactured by PerkinElmer, US].
The induction rate was calculated from the luciferase activity of each test compound based on the luciferase activity of the test compound non-administration group as 1. The test compound concentration and the induction rate were analyzed by PRISM [manufactured by GraphPad Software, Inc., US] to calculate EC50 value (compound concentration showing 50% of the maximum value of induction rate) of the test compound.

Compound | EC50 [nM]
CCCCCS(=O)(=O)NC(=O)OCCc1c(C)nn(C)c1-n1ccc2cc(Cl)ccc21 [Example 66, 2-[5-(5-chloro-1H-indol-1-yl)-1,3-dimethyl-1H-pyrazol-4-yl]ethyl (pentylsulfonyl)carbamate] | 22
Cc1nn(C)c(-n2ccc3cc(Cl)ccc32)c1CCS(=O)(=O)NC(=O)OCC1CC1 [Example 189, cyclopropylmethyl ({2-[5-(5-chloro-1H-indol-1-yl)-1,3-dimethyl-1H-pyrazol-4-yl]ethyl}sulfonyl)carbamate] | 54
Cc1nn(C)c(-n2ccc3cc(Cl)ccc32)c1/C=C1\SC(=O)NC1=O [Example 84, (5Z)-5-{[5-(5-chloro-1H-indol-1-yl)-1,3-dimethyl-1H-pyrazol-4-yl]methylene}-1,3-thiazolidine-2,4-dione] | 220
CCCCCS(=O)(=O)NC(=O)/C=C/c1c(C)nn(C)c1-c1csc2ccccc12 [Example 6, (2E)-3-[5-(1-benzothien-3-yl)-1,3-dimethyl-1H-pyrazol-4-yl]-N-(pentylsulfonyl)acrylamide] | 19
Cc1nn(C)c(-n2ccc3cc(Cl)ccc32)c1/C=C/C(=O)NS(=O)(=O)c1ccco1 [Example 55, (2E)-3-[5-(5-chloro-1H-indol-1-yl)-1,3-dimethyl-1H-pyrazol-4-yl]-N-(2-furylsulfonyl)acrylamide] | 44
CCCCCS(=O)(=O)NC(=O)/C=C/c1c(C)nn(C)c1-n1ccc2ccc(C(F)(F)F)cc21 [Example 31, potassium ((2E)-3-{1,3-dimethyl-5-[6-(trifluoromethyl)-1H-indol-1-yl]-1H-pyrazol-4-yl}prop-2-enoyl)(pentylsulfonyl)azanide] | 5.5
CCCCCS(=O)(=O)NC(=O)/C=C/c1c(C)nn(C)c1-c1cccc2cccnc12 [Example 24, (2E)-3-[1,3-dimethyl-5-(quinolin-8-yl)-1H-pyrazol-4-yl]-N-(pentylsulfonyl)acrylamide] | 54
CCCCCS(=O)(=O)NC(=O)/C=C/c1c(C)nn(C)c1-n1ccc2ccccc21 [Example 7, potassium {(2E)-3-[5-(1H-indol-1-yl)-1,3-dimethyl-1H-pyrazol-4-yl]prop-2-enoyl}(pentylsulfonyl)azanide] | 39
CCCCS(=O)(=O)NC(=O)/C=C/c1c(C)nn(C)c1-n1ccc2cc(Cl)cnc21 [Example 283, (2E)-N-(butylsulfonyl)-3-[5-(5-chloro-1H-pyrrolo[2,3-b]pyridin-1-yl)-1,3-dimethyl-1H-pyrazol-4-yl]acrylamide] | 14
CCCCCS(=O)(=O)NC(=O)/C=C/c1c(C)nn(C)c1-n1ccc2cc(Cl)ccc21 [Example 27, (2E)-3-[5-(5-chloro-1H-indol-1-yl)-1,3-dimethyl-1H-pyrazol-4-yl]-N-(pentylsulfonyl)acrylamide] | 6.1
Cc1ccc(S(=O)(=O)NC(=O)/C=C/c2c(C)nn(C)c2-n2ccc3cccnc32)cc1 [Example 33, (2E)-3-[1,3-dimethyl-5-(1H-pyrrolo[2,3-b]pyridin-1-yl)-1H-pyrazol-4-yl]-N-[(4-methylphenyl)sulfonyl]acrylamide] | 88
CCCCNC(=O)NS(=O)(=O)CCc1c(C)nn(C)c1-n1ccc2cc(C(F)(F)F)cnc21 [Example 294, N-[(butylamino)carbonyl]-2-{1,3-dimethyl-5-[5-(trifluoromethyl)-1H-pyrrolo[2,3-b]pyridin-1-yl]-1H-pyrazol-4-yl}ethanesulfonamide] | 32
CCCCNC(=O)NS(=O)(=O)CCc1c(C2CC2)nn(C)c1-n1ccc2cc(Cl)cnc21 [Example 279, N-[(butylamino)carbonyl]-2-[5-(5-chloro-1H-pyrrolo[2,3-b]pyridin-1-yl)-3-cyclopropyl-1-methyl-1H-pyrazol-4-yl]ethanesulfonamide] | 60
CCCCOC(=O)NS(=O)(=O)CCc1c(C(F)(F)F)nn(C)c1-n1ccc2cc(Cl)cnc21 [Example 197, butyl ({2-[5-(5-chloro-1H-pyrrolo[2,3-b]pyridin-1-yl)-1-methyl-3-(trifluoromethyl)-1H-pyrazol-4-yl]ethyl}sulfonyl)carbamate] | 86
CCCCOC(=O)NS(=O)(=O)CCc1c(C)nn(C)c1-n1ccc2cc(C(F)(F)F)cnc21 [Example 295, butyl [(2-{1,3-dimethyl-5-[5-(trifluoromethyl)-1H-pyrrolo[2,3-b]pyridin-1-yl]-1H-pyrazol-4-yl}ethyl)sulfonyl]carbamate] | 22
CCCCNS(=O)(=O)NC(=O)/C=C/c1c(C)nn(C)c1-n1ccc2cc(Cl)ccc21 [Example 99, (2E)-N-[(butylamino)sulfonyl]-3-[5-(5-chloro-1H-indol-1-yl)-1,3-dimethyl-1H-pyrazol-4-yl]acrylamide] | 24
Cc1nn(C)c(-n2ccc3cc(Cl)cnc32)c1/C=C/C(=O)NS(=O)(=O)NCC1CC1 [Example 264, (2E)-3-[5-(5-chloro-1H-pyrrolo[2,3-b]pyridin-1-yl)-1,3-dimethyl-1H-pyrazol-4-yl]-N-{[(cyclopropylmethyl)amino]sulfonyl}acrylamide] | 26
CCCCCS(=O)(=O)NC(=O)/C=C/c1c(C)nn(C)c1-n1ccc2cccnc21 [Example 9, (2E)-3-[1,3-dimethyl-5-(1H-pyrrolo[2,3-b]pyridin-1-yl)-1H-pyrazol-4-yl]-N-(pentylsulfonyl)acrylamide] | 64
CCCCCS(=O)(=O)NC(=O)NCCCc1c(C)nn(C)c1-n1ccc2cc(Cl)ccc21 [Example 82, N-[({3-[5-(5-chloro-1H-indol-1-yl)-1,3-dimethyl-1H-pyrazol-4-yl]propyl}amino)carbonyl]pentane-1-sulfonamide] | 67
CCCCCNS(=O)(=O)NC(=O)/C=C/c1c(C)nn(C)c1-n1ccc2cc(Cl)ccc21 [Example 62, (2E)-3-[5-(5-chloro-1H-indol-1-yl)-1,3-dimethyl-1H-pyrazol-4-yl]-N-[(pentylamino)sulfonyl]acrylamide] | 37
CCCCCS(=O)(=O)NC(=O)/C=C/c1c(C)nn(C)c1-n1ccc2cc(C)cnc21 [Example 232, (2E)-3-[1,3-dimethyl-5-(5-methyl-1H-pyrrolo[2,3-b]pyridin-1-yl)-1H-pyrazol-4-yl]-N-(pentylsulfonyl)acrylamide] | 15
CCCCCS(=O)(=O)NC(=O)CCc1c(C)nn(C)c1N1CCc2cccnc21 [Example 40, 3-[5-(2,3-dihydro-1H-pyrrolo[2,3-b]pyridin-1-yl)-1,3-dimethyl-1H-pyrazol-4-yl]-N-(pentylsulfonyl)propanamide] | 12

Source: patent US20080194617A1, “Fused ring compound” (priority 2007, published 2008)
